Experimental data published in patent US9420813B2, “Sweetener” (AJINOMOTO CO., INC., priority 2007, dated 2016).
*1 amine or outer side, *2 acyl side, *3 side chain or, on linkers, in order; H or OH if unused. Where no end group is shown, it is not given here. [ ]: non-standard residue; d: D form. γGlu = O=C(O)[C@H](CCC(=O)[*:2])N[*:1]; Abu = CC[C@H](N)C(=O)O

Tests used:
[1] = Quantitative sensory evaluation test, intensity of kokumi-imparting activity; details: for Kokumi intensity, aftertaste / Kokumi intensity, initial and middle taste: control 0, glutathione 3 points
Procedure: The quantitative sensory evaluation test was performed as follows. […] When a sample is acidic when dissolved, the pH was adjusted with NaOH to pH 6.8 to 7.2 before use. Because it is known that glutathione can impart kokumi to a food, glutathione was used as a comparative control. The test was performed with n=3 based on the following sensory evaluation scores: control was given 0 points, glutathione addition was given 3 points. […] It should be noted that the term “initial and middle taste” is a collective term of the initial taste and middle taste.
The quantitative sensory evaluation test was performed as follows. […] When a sample is acidic when dissolved, the pH of the sample was adjusted with NaOH to pH 6.8 to 7.2 before use. The test was performed with n=5 based on the following sensory evaluation scores: control was given 0 point and glutathione addition was given 3 points.
The quantitative sensory evaluation test was performed as follows. […] As for a sample which is acidic when the sample is dissolved, pH of the sample was adjusted with NaOH to pH 6.8 to 7.2 before use. The test was performed with n=12 based on the following sensory evaluation scores: control: 0 point and glutathione addition: 3 points.

[2] = Quantitative sensory evaluation, improvement of body taste and bitterness of combined high-intensity sweeteners (Examples 2 and 4); parameters: species or system human; details: for Bitterness: control 0, <0 improved; for Bitterness / Body taste: n=12; for Body taste: control 0, >0 improved
Procedure: The quantitative sensory evaluation test was performed as follows. As for a combination standard solution of each sweeteners, the following compounds were used. The following standard solutions have been adjusted so they each have almost the same degree of sweetness.
ii) APM (0.02 g/dl)+Ace-K (0.005 g/dl) [APM:Ace-K=8:2 as a ratio of degrees of sweetness]
iii) Sucralose (0.0058 g/dl)+Ace-K (0.0075 g/dl) [sucralose:Ace-K=7:3 as a ratio of degrees of sweetness]
iv) APM (0.0125 g/dl)+sucralose (0.0042 g/dl) [APM:sucralose=1:1 as a ratio of degrees of sweetness]
v) APM (0.0125 g/dl)+sucralose (0.0021 g/dl)+Ace-K (0.0063 g/dl) [APM:sucralose:Ace-K=2:1:1 as a ratio of degrees of sweetness]
To distilled water containing each of the sweeteners, γ-Glu-Cys-Gly (glutathione), γ-Glu-Val-Gly or γ-Glu-Abu-Gly was added and mixed at concentrations of 0.0001 to 1 g/dl, and then the degree of the improvement of the body taste and the improvement of the bitterness on the sweet taste was measured. The addition effect of the peptides on each of the high-intensity sweeteners was evaluated with reference to sucrose.
When a mixture is more acidic than the standard control solution, the pH of the mixture was adjusted with NaOH to achieve a range of pH±0.2 with respect to the pH of the standard solution before use.
The sensory evaluation for the improvement of the body taste was performed with n=12 on the basis of the following criteria: a control (obtained by adding distilled water only and without adding glutathione and/or the peptide) was defined as 0, and by using the control as a standard, the follow were defined: weak: −2 points; slightly weak: −1 point; slightly strong: 1 point, and strong: 2 points. A higher score than 0 means that the sample has a body taste-improving effect.
(§1) Alternatively, the sensory evaluation for the improvement of the bitterness was performed with n=12 on the basis of the following criteria: a control (obtained by adding distilled water only and without adding glutathione and/or the peptide) was defined as 0, and by using the control as a standard, the following were defined: weak: −2 points; slightly weak: −1 point; slightly strong: 1 point, and strong: 2 points. A lower score than 0 means that the sample improves the bitterness.
The quantitative sensory evaluation test was performed as follows. As for combination standard solution of each sweeteners, the following compound was used. The following standard solutions have been adjusted so they each have almost the same degree of sweetness.
To distilled water containing each sweetener mentioned above, γ-Glu-Val-Gly or cinacalcet was added and mixed at concentrations of 0.0001 to 1 g/dl, and then each degree of the improvement of the body taste and the improvement of the bitterness on the sweet taste was measured. The addition effect of the sample on each of the high intensity sweeteners was evaluated with reference to sucrose.
When a mixture is more acidic than the standard control solution, the pH of the sample was adjusted with NaOH to achieve a range of pH±0.2 with respect to the pH of the standard solution before use.
The sensory evaluation for the improvement of the body taste was performed with n=12 on the basis of the following criteria: a control (obtained with adding distilled water only and without adding the sample) was defined as 0, and by using the control as a standard, the following were defined: weak: −2 points; slightly weak: −1 point; slightly strong: 1 point, and strong: 2 points. A higher score than 0 means that the sample improves the body taste.
as §1, with “(obtained with” for “(obtained by”, “adding” for “adding glutathione and/or”, “the sample)” for “the peptide)”, “points. […]” for “points. A lower score than 0 means that the sample improves the bitterness.”

[3] = APM 0.0125 + sucralose 0.0021 + Ace-K 0.0063 g/dl (2:1:1), sample 0.05 g/dl
[4] = APM 0.0125 g/dl + sucralose 0.0042 g/dl (1:1), sample 0.05 g/dl
[5] = APM 0.02 g/dl + Ace-K 0.005 g/dl (8:2), sample 0.05 g/dl
[6] = sucralose 0.0058 g/dl + Ace-K 0.0075 g/dl (7:3), sample 0.05 g/dl
[7] = APM 0.0125 + sucralose 0.0021 + Ace-K 0.0063 g/dl (2:1:1), sample 0.001 g/dl
[8] = APM 0.0125 + sucralose 0.0021 + Ace-K 0.0063 g/dl (2:1:1), sample 0.01 g/dl
[9] = APM 0.0125 g/dl + sucralose 0.0042 g/dl (1:1), sample 0.001 g/dl
[10] = APM 0.0125 g/dl + sucralose 0.0042 g/dl (1:1), sample 0.01 g/dl
[11] = APM 0.02 g/dl + Ace-K 0.005 g/dl (8:2), sample 0.001 g/dl
[12] = APM 0.02 g/dl + Ace-K 0.005 g/dl (8:2), sample 0.01 g/dl
[13] = sucralose 0.0058 g/dl + Ace-K 0.0075 g/dl (7:3), sample 0.001 g/dl
[14] = sucralose 0.0058 g/dl + Ace-K 0.0075 g/dl (7:3), sample 0.01 g/dl

Molecule: N[C@@H](CCC(=O)N[C@@H](CS)C(=O)NCC(=O)O)C(=O)O [γ-Glu-Cys-Gly, reference compound]
- Kokumi intensity, aftertaste ([1]; sample 0.1 g/dl, n=3): 3.0 points
- Kokumi intensity, initial and middle taste ([1]; sample 0.1 g/dl, n=3): 3.0 points
- Kokumi intensity, aftertaste ([1]; sample 0.1 g/dl, n=5): 3.0 points
- Kokumi intensity, initial and middle taste ([1]; sample 0.1 g/dl, n=5): 3.0 points
- Kokumi intensity, aftertaste ([1]; sample 0.1 g/dl, n=12): 3.0 points
- Kokumi intensity, initial and middle taste ([1]; sample 0.1 g/dl, n=12): 3.0 points
- Evaluation comments ([1]; sample 0.1 g/dl, n=3): Thickness,
- Taste profile ([1]; sample 0.1 g/dl, n=5): Thickness,
- Taste profile ([1]; sample 0.1 g/dl, n=12): Thickness,
- Bitterness [2, 3]: −0.3 points
- Body taste [2, 3]: 1.2 points
- Bitterness [2, 4]: −0.3 points
- Body taste [2, 4]: 1.0 points
- Bitterness [2, 5]: −0.3 points
- Body taste [2, 5]: 1.0 points
- Taste profile ([2]; APM:Ace-K = 8:2, sample 0.05 g/dl): Sweet taste is wholly enhanced.
- Taste profile ([2]; APM:sucralose = 1:1, sample 0.05 g/dl): Sweet taste is enhanced in middle taste.
- Taste profile ([2]; APM:sucralose:Ace-K = 2:1:1, sample 0.05 g/dl): Sweet taste is wholly enhanced.
- Bitterness [2, 6]: −0.3 points
- Body taste [2, 6]: 1.0 points
- Taste profile ([2]; sucralose:Ace-K = 7:3, sample 0.05 g/dl): Sweet taste is enhanced in middle taste.

Molecule: [γGlu]-[Abu]-Gly
- Kokumi intensity, aftertaste ([1]; sample 0.01 g/dl, n=12): 2.0 points
- Kokumi intensity, initial and middle taste ([1]; sample 0.01 g/dl, n=12): 3.0 points
- Bitterness [2, 7]: −0.4 points
- Body taste [2, 7]: 0.6 points
- Bitterness [2, 8]: −0.8 points
- Body taste [2, 8]: 1.3 points
- Bitterness [2, 9]: −0.1 points
- Body taste [2, 9]: 0.6 points
- Bitterness [2, 10]: −0.1 points
- Body taste [2, 10]: 1.3 points
- Bitterness [2, 11]: −0.3 points
- Body taste [2, 11]: 0.6 points
- Bitterness [2, 12]: −0.7 points
- Body taste [2, 12]: 1.3 points
- Taste profile ([2]; APM:sucralose = 1:1, sample 0.001 g/dl): Harmony is present. Sweet taste is enhanced
- Taste profile ([2]; APM:sucralose = 1:1, sample 0.01 g/dl): Harmony is present. Sweet taste is enhanced
- Bitterness [2, 13]: −0.3 points
- Body taste [2, 13]: 0.5 points
- Bitterness [2, 14]: −0.7 points
- Body taste [2, 14]: 1.1 points
